“Also recorded” adds a separate entry of the source.
Columns and labels:
Assay in all cases: Cytotoxicity MTT assay
RAW 264.7 cells = format: cell-based, mouse; conditions: 16 h
Method: (§1) The presence of compounds can influence cellular basic physiological processes, suppress proliferation and even reduce cell survival, etc. In the community, MRSA generally causes respiratory infection. Therefore, cytotoxicity was evaluated to explore the effect of compounds 12c and 22c on the viability of the respiratory tract cells 16-HBE (human bronchial epithelial cell line). RAW 264.7 (mouse peritoneal macrophage cell line) and Caco-2 (human epithelial colorectal adenocarcinoma cell line) were also used to evaluate the cytotoxicity of compounds 12c and 22c by MTT assay.
Cytotoxicity of the test compounds was assessed using the conventional MTT method. RAW 264.7 murine macrophage cells, Caco-2 cells and 16-HBE were used in this experiment. The cells were seeded into 96-well plates at a density of 1.0 × 10^5 cells per well. After 4 h at 37 °C, the cells were treated with compounds 12c and 22c at various concentrations and incubated at 37 °C for 16 h. Next, MTT (0.5 mg/mL in PBS, 100 μL/well) was added sequentially to each well in a humidified atmosphere of 95% air and 5% CO2 incubator and the incubation continued for an additional four hours. […] At the end of this period, the absorbance was measured at 490 nm by a microplate spectrophotometer (BIO-TEK Instruments, Winooski, VT, USA).

Caco-2 cells = format: cell-based, human; conditions: 1~8 μg/mL, 16 h
Method: as §1
(§2) Cytotoxicity of the test compounds was assessed using the conventional MTT method. RAW 264.7 murine macrophage cells, Caco-2 cells and 16-HBE were used in this experiment. The cells were seeded into 96-well plates at a density of 1.0 × 10^5 cells per well. After 4 h at 37 °C, the cells were treated with compounds 12c and 22c at various concentrations and incubated at 37 °C for 16 h. Next, MTT (0.5 mg/mL in PBS, 100 μL/well) was added sequentially to each well in a humidified atmosphere of 95% air and 5% CO2 incubator and the incubation continued for an additional four hours. After incubation, the medium was peeled off and DMSO (150 μL/well) was added to dissolve the cells, and then the incubation was continued for 30 min. At the end of this period, the absorbance was measured at 490 nm by a microplate spectrophotometer (BIO-TEK Instruments, Winooski, VT, USA).

16-HBE cells = format: cell-based, human; conditions: 1~8 μg/mL, 16 h
Method: as §1, §2

C=C[C@]1(C)C[C@@H](OC(=O)CSc2ccc(Nc3nc(Cl)nc4c3cnn4-c3ccc(F)c(F)c3)cc2)[C@]2(C)[C@H](C)CC[C@]3(CCC(=O)[C@H]32)[C@@H](C)[C@@H]1O [Compound 22c, 22-[4-(6-Chloro-1-(3,4-difluorophenyl)-1H-pyrazolo[3,4-d]pyrimidine-4-yl)amino-Phenylsulfanyl]-22-deoxypleuromutilin]
effect on viability of RAW 264.7 cells (RAW 264.7 cells; 8 µg/mL): slight inhibition
effect on viability of RAW 264.7 cells (RAW 264.7 cells; ≤8 μg/mL): no significant inhibition
effect on viability of Caco-2 cells (Caco-2 cells): no significant inhibition; also recorded: did not affect the viability
effect on viability of 16-HBE cells (16-HBE cells): no significant inhibition; also recorded: did not affect the viability

Source: PMC10180054, “Design, Synthesis and Biological Evaluation of Novel Pleuromutilin Derivatives Containing 6-Chloro-1-R-1H-pyrazolo[3,4-d]pyrimidine-4-amino Side Chain” (Molecules, 2023)
